Test results from paper PMC12621569 (Antiviral research, 2025).

What was measured:
[1] = test system: influenza A viruses; assay type: cell-based, influenza A virus
[2] = test system: type A viruses; details: cited from earlier work
[3] = test system: A(H3N2) viruses; assay type: cell-based, influenza A(H3N2) virus
[4] = test system: A(H1N1)pdm09 viruses; assay type: cell-based, influenza A(H1N1)pdm09 virus
[5] = test system: B/Victoria neuraminidase (NA); assay type: biochemical, influenza B/Victoria lineage virus
[6] = target: A (H1N1)pdm09 neuraminidase (NA); assay type: biochemical, influenza A (H1N1)pdm09 virus

SMILES	change in EC50 [1]	elevated baloxavir EC50 in cell culture [2]	variably elevated baloxavir EC50 [2]	effect on baloxavir susceptibility [3]	effect on baloxavir susceptibility [4]	effect of substitution on inhibition of NA activity [5]	IC50 fold vs NA sequence-matched virus [5] [fold]	IC50 Fold [6] [fold]
O=C1c2c(O)c(=O)ccn2N([C@@H]2c3ccccc3SCc3c2ccc(F)c3F)[C@@H]2COCCN12 [Baloxavir, baloxavir]	• Natural polymorphism • No or little change in EC50 (<3-fold)	• Primary treatment-emergent; associated with diminished virologic response in clinical settings • Rarely as natural polymorphism • Confers elevated baloxavir EC50 in cell culture (11–614-fold)	• Most are natural polymorphisms • Some emerged post baloxavir exposure or introduced for assessment • Confer variably elevated baloxavir EC50 (<3–19 fold)	no effect	no effect			
CCOC(=O)C1=C[C@@H](OC(CC)CC)[C@H](NC(C)=O)[C@@H](N)C1 [Oseltamivir, oseltamivir]						improving the ability		
CCC(CC)[C@H](NC(C)=O)[C@@H]1[C@H](O)[C@@H](C(=O)O)C[C@H]1N=C(N)N [Peramivir, peramivir]						improving the ability	14	301
